These are literature values, as cited in US4163799A, “Psychostimulant compounds” (Union Chimique Continentale U.C.C., priority 1975, dated 1979).

The conditions of this series: caffeine, comparison in words, no test described; cited from earlier work.

`Cn1c(=O)c2c(ncn2C)n(C)c1=O` [caffeine]: the antihypnotic effect entry is given as “does”.
